US8846616B1, “Alpha-melanocyte stimulating hormone as topical anti-inflammatory agent for the treatment of allergic contact dermatitis and eczema” (Florida Agricultural and Mechanical University, priority 2009, dated 2014)

How the values were obtained:
[1] = In vitro skin permeation, Franz diffusion cells; assay type: in vitro ADME, rat
Procedure: (§1) In order to determine if the penetration and retention of full-length α-MSH could be augmented in vitro by formulations containing compounds known to improve this process, we conducted in vitro studies with 36 different formulations of α-MSH. The α-MSH powder was weighed directly into a 2 mL graduated glass vial and dissolved in water. Measured volumes of the respective vehicles were dissolved in the solution to achieve the desired percentage (w/v) of α-MSH. Hairless rats were euthanized, skin from the dorsal surface was excised, and the adherent fat and subcutaneous tissue were removed. The skin was mounted on Franz diffusion cells with the stratum corneum facing the donor compartment. The volume of the donor and receptor cells was 2.0 and 5.0 mL, respectively.
Permeation of α-MSH in these formulations was measured by applying the formulation (200 μL) on the skin surface in the donor compartment, sealed with aluminum foil and Parafilm®. […] After 24 hours, the receptor compartment was sampled, and α-MSH content was analyzed by HPLC.
(§2) Analysis of α-MSH in permeation and retention studies conducted in vitro with skin from hairless rats was performed using an HPLC system (Waters Corp, Milford, Mass.) operated by Millennium software. […] The α-MSH content in the samples was determined using the UV detector set at 230 nm, and the detection limit was determined to be 0.1 μg/mL. […]

[2] = In vitro skin retention, Franz diffusion cells; assay type: in vitro ADME, rat; settings: after 24 hours
Procedure: as §1
For the retention studies, the donor cell was removed, and the excess formulation was removed from the surface of the skin by gently wiping with a cotton swab dipped in 50% ethanol. […] The α-MSH content of each sample was analyzed by HPLC. […]
as §2

[3] = tested on: DNFB-induced allergic contact dermatitis; assay: Murine allergic contact dermatitis (ACD) model, ear swelling by micrometer; assay type: in vivo, mouse; settings: concentration of 0.25% α-MSH versus 0.125% and 0.5%; topical formulations including MF21
Procedure: Allergic contact dermatitis was induced as previously described (8, 16). Mice were sensitized on day 0 by applying 25 μL of 0.5% DNFB in 4:1 acetone/olive oil on the shaved abdomen. Mice were challenged on day 5 with a single topical application of 15 μL of 0.2% DNFB in 4:1 acetone/olive oil on the right ear in order to induce an ACD response. The left ears were treated with a single topical application of the matched vehicle alone (4:1 acetone/olive oil) to serve as an internal control for the experiments. Beginning on day 6 (24 hours after challenge), the right ears were treated with 15 μL of topically applied α-MSH formulations or 0.5 mM dexamethasone solution and the left ears of the same mice were topically applied with the corresponding matched vehicle. […] Commercial ointment products were topically applied 20 μL per treatment as measured with a syringe and spread evenly with an applicator stick. […] The ACD response was determined by the degree of ear swelling of the hapten-exposed ear (right) compared to that of the matched vehicle-treated contra-lateral ear (left) before DNFB challenge and at 24, 48, 72, and 96 hours after challenge, as measured with a micrometer (7309, Mitutoyo, Tokyo, Japan). Percent change was determined based on 100% thickness 24 hours after challenge. […]

[4] = tested on: DNFB-induced allergic contact dermatitis; assay: Histology (H&E) of ear tissue in the ACD model; assay type: in vivo, mouse; design: key to score of relative inflammation (infiltrate grade): (1+) representing few lymphocytes and eosinophils above baseline levels that are scattered around blood vessels; (2+) representing increased perivascular infiltrate; (3+) representing intense perivascular infiltrate extending slightly into the interstitial collagen between vessels within the papillary dermis; (4+) representing intense diffuse lymphocytic infiltrate throughout the papillary dermis; settings: 96 hours after DNFB challenge
Procedure: (§3) Mice examined in the allergic contact dermatitis model were euthanized 96 hours after challenge with DNFB, and the left and right ears were excised. Ears were fixed in alcoholic formalin and embedded in paraffin. Cross-sections were cut through the center of each ear anterior to posterior. Ears were stained using hematoxylin and eosin (H&E). Additionally, the inflammatory markers CD3 and ICAM-1 were stained using rat anti-mouse primary antibodies (0.2 μg/mL and 1.0 μg/mL, respectively) and detected with a mouse-absorbed goat anti-rat'horseradish peroxidase-conjugated secondary antibody (1.0 μg/mL). Endogenous peroxidase activity was blocked with H2O2 before antibody incubations and DAB exposure, and then the marker-stained slides were counterstained with Mayer's hematoxylin blued with dilute ammonium hydroxide. The sections of each ear were photographed at representative sites using a light microscope (Zeiss Axio Imager; Zeiss, Thornwood, N.Y.) with an attached digital camera (Axiocam MRc, Zeiss, Thornwood, N.Y.) operated by Zeiss AxioVision 4.6.
Mice used in the allergic contact dermatitis model were euthanized 96 hours after challenge with DNFB (72 hours after initiation of topical treatment), and the left and right ears were excised, fixed with formalin, and embedded in paraffin. Cross-sections of the middle of each ear (same position) were cut at a thickness of 4 μm and stained with hematoxylin and eosin (H&E). […] Microscopic measurements of thickness were made at 5 equidistant points on each of the photographed H&E sections. All values are expressed as mean±SD. All differences were statistically significant as determined by ANOVA for pair-wise comparison (P<0.05).
Overall, the allergic contact dermatitis hypersensitivity response developed intense perivascular lymphoid infiltrate extending into the papillary dermis with little or no change in the epidermis at 96 hours following challenge. In all samples generally >90% of the inflammatory infiltrate consisted of lymphocytes and <10% consisted of eosinophils. […]

CD3 = assay: Immunohistochemistry of ear tissue in the ACD model, CD3; assay type: in vivo, mouse; settings: ear tissue after three days of treatment, 96 hours after DNFB challenge
Procedure: as §3
To assay inflammation, ear tissue of the mice was excised 96 hours after challenge with DNFB, fixed in formalin, and embedded in paraffin. […]

Ac-Ser-Tyr-Ser-Met-Glu-His-Phe-Arg-Trp-Gly-Lys-Pro-Val [α-MSH]
permeation through the skin barrier ([1]; aqueous α-MSH in the absence of TRANSCUTOL and NMP, after 24 hours): did not permeate through the skin barrier at all | α-MSH penetrated through 1.0 cm^2 of skin ([1]; vehicles ethanol, propylene glycol, TRANSCUTOL and LABRASOL (all four), hairless rat skin in vitro): 6.5 to 7.0 µg | α-MSH retained per gram of skin (epidermis) ([2]; in aqueous TRANSCUTOL, LABRASOL, or propylene glycol): 0.4-0.5 mg per gram of skin | α-MSH retained per gram of skin (epidermis) ([2]; in aqueous ethanol): 1.8 mg per gram of skin | reduction in ear swelling, α-MSH dose response [3]: optimal reduction in ear swelling | score of relative inflammation (infiltrate grade) [4]: 1+ | inflammatory (lymphoid) infiltrate in H&E sections ([4]; three days of treatment twice per day): relatively low retention of inflammatory infiltrate | ear swelling in H&E sections ([4]; three days of treatment twice per day, FIG. 4): complete alleviation of swelling down to slightly below baseline thickness | expression of the CD3 marker antigen in the lymphocytic infiltrate (CD3): greatly reduced
